From paper PMC8600679, “Substituted Two- to Five-Ring Polycyclic Aromatic Compounds Are Potent Agonists of Atlantic Cod (Gadus morhua) Aryl Hydrocarbon Receptors Ahr1a and Ahr2a” (Environmental Science & Technology, 2021)
pEC50: −log10 of the molar value. Where two headings read alike, the source gives them in different places.

Experiments:
Atlantic cod Ahr1a = Atlantic cod Ahr1a (Gadus morhua, UniProt A0A6H1Z2L5); assay: cell-based
Atlantic cod Ahr2a = biological target: T1, Atlantic cod Ahr2a (Gadus morhua, UniProt A0A6H1Z3G8); assay: cell-based
T1 sequence (A0A6H1Z3G8 1-1127): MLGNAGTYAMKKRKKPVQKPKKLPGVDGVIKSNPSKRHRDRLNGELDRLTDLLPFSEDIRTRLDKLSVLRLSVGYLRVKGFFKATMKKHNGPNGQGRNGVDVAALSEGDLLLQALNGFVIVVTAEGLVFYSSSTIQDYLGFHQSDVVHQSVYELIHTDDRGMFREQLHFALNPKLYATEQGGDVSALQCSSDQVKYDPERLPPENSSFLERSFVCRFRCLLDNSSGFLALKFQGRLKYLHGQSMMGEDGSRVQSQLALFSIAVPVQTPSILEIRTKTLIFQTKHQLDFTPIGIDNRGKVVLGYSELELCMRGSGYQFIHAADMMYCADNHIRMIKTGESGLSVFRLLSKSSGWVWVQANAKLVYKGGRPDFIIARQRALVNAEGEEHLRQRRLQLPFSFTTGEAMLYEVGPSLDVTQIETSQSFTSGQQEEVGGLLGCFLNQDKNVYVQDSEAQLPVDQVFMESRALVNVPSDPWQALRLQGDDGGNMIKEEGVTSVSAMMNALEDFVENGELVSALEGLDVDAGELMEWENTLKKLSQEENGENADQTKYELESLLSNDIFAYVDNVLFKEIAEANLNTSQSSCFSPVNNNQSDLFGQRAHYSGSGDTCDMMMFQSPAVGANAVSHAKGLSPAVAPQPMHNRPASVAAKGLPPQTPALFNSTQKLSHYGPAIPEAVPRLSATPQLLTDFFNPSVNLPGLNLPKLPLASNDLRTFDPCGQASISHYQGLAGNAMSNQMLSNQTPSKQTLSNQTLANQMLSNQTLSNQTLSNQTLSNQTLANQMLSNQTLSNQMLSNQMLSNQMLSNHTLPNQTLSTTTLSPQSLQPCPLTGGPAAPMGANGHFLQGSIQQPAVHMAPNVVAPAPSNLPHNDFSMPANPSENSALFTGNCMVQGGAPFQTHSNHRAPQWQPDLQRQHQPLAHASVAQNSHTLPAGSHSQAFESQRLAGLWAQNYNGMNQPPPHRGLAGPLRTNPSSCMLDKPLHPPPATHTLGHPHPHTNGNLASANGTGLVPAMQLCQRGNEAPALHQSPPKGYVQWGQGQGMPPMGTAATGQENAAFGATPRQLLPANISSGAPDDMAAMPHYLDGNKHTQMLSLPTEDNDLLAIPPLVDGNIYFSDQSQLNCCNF

rat AHR = test system: rat AHR; set-up: method as in PMID 17941736, PMID 25108069; details: H4IIE-luc reporter assay; cited from earlier work
[1] = EC25 of TCDD divided by concentration of PAC giving 25% of TCDD response
[2] = Welch's t-test, Supporting Table S6

Atlantic cod Ahr1a, sequence (A0A6H1Z2L5 1-957): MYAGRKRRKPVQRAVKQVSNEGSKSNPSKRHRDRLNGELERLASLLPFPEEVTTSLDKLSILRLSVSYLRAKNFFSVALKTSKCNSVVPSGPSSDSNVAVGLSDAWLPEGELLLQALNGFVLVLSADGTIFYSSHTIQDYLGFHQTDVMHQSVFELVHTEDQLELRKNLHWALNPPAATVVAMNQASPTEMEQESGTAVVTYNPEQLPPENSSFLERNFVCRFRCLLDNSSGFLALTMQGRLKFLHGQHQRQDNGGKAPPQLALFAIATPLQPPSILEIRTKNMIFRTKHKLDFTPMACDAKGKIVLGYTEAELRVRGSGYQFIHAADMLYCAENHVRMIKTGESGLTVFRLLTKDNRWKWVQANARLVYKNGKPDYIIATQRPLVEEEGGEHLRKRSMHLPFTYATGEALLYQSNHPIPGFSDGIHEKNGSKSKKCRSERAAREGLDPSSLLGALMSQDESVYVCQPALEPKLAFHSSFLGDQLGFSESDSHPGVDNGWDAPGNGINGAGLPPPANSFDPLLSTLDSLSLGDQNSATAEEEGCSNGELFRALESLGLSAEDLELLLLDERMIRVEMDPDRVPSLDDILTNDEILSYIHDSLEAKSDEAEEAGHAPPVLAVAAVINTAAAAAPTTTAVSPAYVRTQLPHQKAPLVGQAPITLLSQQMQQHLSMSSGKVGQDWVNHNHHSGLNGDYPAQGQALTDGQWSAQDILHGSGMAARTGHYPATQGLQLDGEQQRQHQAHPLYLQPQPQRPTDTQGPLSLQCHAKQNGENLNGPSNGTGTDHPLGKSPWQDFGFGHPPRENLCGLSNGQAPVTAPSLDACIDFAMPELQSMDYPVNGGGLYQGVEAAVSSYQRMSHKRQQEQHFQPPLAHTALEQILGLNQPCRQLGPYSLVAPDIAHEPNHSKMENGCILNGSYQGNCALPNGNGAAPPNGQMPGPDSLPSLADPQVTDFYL
Atlantic cod Ahr1a, sequence (A0A8C5CZZ9 1-645 partner): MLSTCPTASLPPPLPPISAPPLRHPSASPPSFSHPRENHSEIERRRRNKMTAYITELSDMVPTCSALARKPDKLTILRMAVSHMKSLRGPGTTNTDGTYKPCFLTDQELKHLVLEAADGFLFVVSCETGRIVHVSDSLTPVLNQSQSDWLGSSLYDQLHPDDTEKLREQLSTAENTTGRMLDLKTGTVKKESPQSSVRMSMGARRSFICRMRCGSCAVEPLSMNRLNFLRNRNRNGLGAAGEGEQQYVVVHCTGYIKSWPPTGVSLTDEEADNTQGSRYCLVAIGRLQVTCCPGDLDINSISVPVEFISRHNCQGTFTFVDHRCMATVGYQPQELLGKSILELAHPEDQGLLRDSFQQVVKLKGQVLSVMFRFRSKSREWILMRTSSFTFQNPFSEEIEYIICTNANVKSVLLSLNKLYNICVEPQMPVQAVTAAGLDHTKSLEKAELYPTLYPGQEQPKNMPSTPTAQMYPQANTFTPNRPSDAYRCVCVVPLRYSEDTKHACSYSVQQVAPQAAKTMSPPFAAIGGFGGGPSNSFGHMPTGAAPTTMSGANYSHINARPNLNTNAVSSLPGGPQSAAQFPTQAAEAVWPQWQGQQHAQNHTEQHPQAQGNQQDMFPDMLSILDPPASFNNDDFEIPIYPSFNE

Compound | pEC50 (Atlantic cod Ahr1a; COS-7 cells, 24 h exposure, read-out: Ahr1a EC50) | Ahr1a REP25 (Atlantic cod Ahr1a; [1]) | Efficacy compared to TCDD with Ahr1a (Atlantic cod Ahr1a; [2]) | Activation of Ahr1a (agonist or not) (Atlantic cod Ahr1a; in vitro transactivation) | Emax (Atlantic cod Ahr1a; percent of maximum efficacy determined for TCDD, COS-7 cells, 24 h exposure, None = no agonistic response significantly different from solvent, read-out: Ahr1a Relative Emax (%)) | melting point | pEC50 (Atlantic cod Ahr2a; COS-7 cells, 24 h exposure, read-out: Ahr2a EC50) | Ahr2a REP25 (Atlantic cod Ahr2a; [1]) | EC50 (Atlantic cod Ahr2a; Supplementary Table S5, read-out: Potency (EC50, nM) Ahr2a) | Efficacy compared to TCDD via Ahr2a (Atlantic cod Ahr2a; [2]) | Activation of Ahr2a (agonist or not) (Atlantic cod Ahr2a; in vitro transactivation) | Emax (Atlantic cod Ahr2a; percent of maximum efficacy determined for TCDD, COS-7 cells, 24 h exposure, None = no agonistic response significantly different from solvent, read-out: Ahr2a Relative Emax (%)) | EC50 (Atlantic cod Ahr1a; Ahr1a EC50 (nM), COS-7 cells, 24 h exposure) | Emax (Atlantic cod Ahr1a; COS-7, read-out: Ahr1a Relative Emax (%)) | pEC50 (rat AHR) | EC50 (Atlantic cod Ahr2a; Ahr2a EC50 (nM), COS-7 cells, 24 h exposure) | Emax (Atlantic cod Ahr2a; COS-7, read-out: Ahr2a Relative Emax (%))
COc1cc2ccc3c4ccccc4ccc3c2cc1OC [2,3-DMOC, 2,3-Dimethoxychrysene] | 6.70 | 0.0083 | lower efficacies than TCDD | activated the two Ahrs | 77.5% | 212 to 213.5 °C | 6.44 | 0.00911 | 359 nM | lower efficacies in comparison to TCDD | activated the two Ahrs | 55% |  |  |  |  | 
Clc1cc2c(cc1Cl)Oc1cc(Cl)c(Cl)cc1O2 [TCDD, 2,3,7,8-Tetrachlorodibenzo-p-dioxin, reference compound] |  |  |  |  |  |  |  |  |  |  |  |  | 1.7 nM | 99.7% | 10.74 to 11.10 | 6.2 nM | 99.4%
